Assay results: patent US20220220100A1 (SOLUTIA CANADA INC., priority 2019, published 2022)

Tests used:
Format in all cases: physicochemical
[1] = UV/Vis absorbance at 400 nm and Yellowness Index of the ring-open isomer; details: for Abs @ 400 nm, RO (Absorption of ring-open isomer at 400 nm): 2×10^−5 M solution, 1 cm pathlength cuvette
From the text: In addition to the above, chromophores should have acceptable colour for both the ring-opened and ring-closed isomers. For example, the ring-open isomer of the chromophore should have a Yellowness Index (YI) of less than about 10 and an absorbance at 400 nm, as measured for a 2×10^−5 M solution in a 1 cm pathlength cuvette. For the ring-closed isomer of the chromophore, the lambda max should be between about 475 nm and 700 nm, tunable according to desired colour and number of chromophores in the composition.
UV/Vis spectra were obtained using an OceanOptics™ Spectrophotometer. A 2×10^−5 M solution of compound in solvent was prepared, and photofaded using visible light until absorption in the visible region of the spectrum stabilized. The sample was then irradiated with simulated sunlight (QSUN SS-150 Solar Simulator with xenon arc lamp) until the absorption spectrum stabilized. To obtain PSS in the presence of a UV blocking film, a second sample was prepared and irradiated as described, with a UV blocking film inserted in the light path when irradiating.

[2] = Oxidation potential of ring-closed and ring-open isomers; details: no unit printed in table (V relative to Ag/AgCl)
From the text: In various embodiments, at a PSS, some of the chromophore will be in the ring-closed isomer, with a small, but non-zero portion of ring-open isomer. The oxidation potential of a ring-open isomer may be more anodic than the oxidation potential of a ring-closed isomer. Exposure to a potential that is too far beyond what is necessary to oxidize the ring-closed isomer may result in oxidation of the ring-open isomer, which may be irreversible and result in electrochemically-induced degradation of the chromophore.
Thus, in various embodiments, an anodic chromophore may have an oxidation potential of from about 0.4 V to 1.2 V for the ring-closed isomer and about 1.0 V to 2.5 V for the ring-open isomer relative to an Ag/AgCl reference electrode. In various embodiments, the oxidation potential for the ring-open isomer is about 250 mV more anodic than the oxidation potential for the ring-closed isomer. For example, the oxidation potential may be about 260 mV, about 280 mV, about 300 mV, about 320 mV, about 340 mV, about 360 mV, about 380 mV, about 400 mV, about 420 mV, about 440 mV, or about 460 mV more anodic than the oxidation potential for the ring-closed isomer.

[3] = Photostability: xenon arc weathering of chromophore solutions, LCMS analysis; details: for Ketone (%) / Minus-2HF (%) / Minus-HF (%) / Sulfone (%) / Chromophore Remaining (%): xenon arc, 82° C. bp; for Ketone (%) / Minus-2HF (%) / Minus-HF (%) / Sulfone (%): linearly interpolated to 0.5 MJ/m2 @ 340 nm; for Chromophore Remaining (%): linearly interpolated to 0.5 MJ/m2 @ 340 nm of exposure energy; for Ratio of chromophore remaining relative to S340: interpolated to 0.5 MJ/m^2 of energy exposure at 340 nm; for Photostability (in words): weathering experiments
From the text: Photostability (resistance to light-induced degradation) may be measured by the amount of time required for the compound, or a material comprising the compound, to degrade to a certain point under light exposure. The light exposure may be constant, or cyclic. The light transmittance or absorbance of the compound, or material comprising the compound, may be determined at both a light state and dark state prior to testing, to determine a contrast ratio. During testing, the contrast ratio may be monitored (periodically or continually), the compound or material may be determined to have failed when the contrast ratio falls outside, or below, a selected range, or when the contrast ratio decreases to a percentage of the original contrast ratio. Photostability may also be expressed with reference to a light source or with reference to a type of light.
Chromophore solutions in Rhodiasolv IRIS were prepared at 1 to 10 wt % loading. Solutions were prepared in a glovebox by charging the chromophore and Rhodiasolv IRIS to a trace-clean vial, and the solution was stirred on a hotplate at 90° C. for 2-24 hours. After cooling, the chromophore solution was injected into glass weathering cells and the fill and vent ports were sealed with a thin disc of Kalrez (FFKM Perfluorinated Elastomer) and secured with a clamp and set-screw. The weathering cells were filled and sealed inside the glove box.
Measurement of Photostability
A. Fabrication of cuvettes. Two holes of 0.8 mm diameter were drilled at opposite ends in a 75×50 mm piece of float glass using a diamond drill bit in a rotary tool. The drilled glass and a matching piece of undrilled glass were then cleaned using hot soapy water, rinsed with deionized water and acetone and then dried with compressed air. A 5 mm wide frame was cut from a sheet of 50 μm thickness EVAL EF-F using a laser engraver. The EVAL frame was placed around the perimeter of one sheet of glass and sandwiched by the second sheet of glass. The glass-EVAL-glass sandwich was secured with tape and heated under vacuum (10 mmHg) for 30 minutes at 170° C. in a vacuum bag. After cooling, a third piece of float glass was PVB laminated to the non-drilled side of the sealed glass cells using Trosifol UV Extra Protect B150 PVB (400 nm UV cut-off).
B. Xenon arc weathering protocol. Devices were exposed to simulated weathering conditions inside a Xe-3-HS xenon arc chamber, manufactured by Q-labs Inc. The samples were weathered according to the following table. The devices were exposed to these conditions continuously, with no dark or spray cycles included.
C. Analysis of weathered chromophore solutions by LCMS. The set-screws, metal clamps and Kalrez plugs were removed from the cuvette to expose the fill port. A 5 mL plastic syringe (NORM-JECT®) equipped with a tip (Precision Tips, 0.010″ RED) was inserted into one fill port and the chromophore solution was withdrawn from the cuvette. The chromophore solution was then injected into a 2 mL amber vial (part number 5182-0716, Agilent Technology) prefilled with 1.5 mL LC-MS grade acetonitrile (HiPerSolbe CHROMANORM Acetonitrile, VWR BDH Chemicals). An aliquot of the acetonitrile solution (2 μL) was injected into the LC-MS system (Agilent Infinity 1290 LC-MS system with diode array detector) through an autosampler mechanism. Species in the injected sample were separated through a reverse phase column (Zorbax SB-C18, 2.1×50 mm, 1.8 μm, operated at 40° C.), using a mixture of acetonitrile (mixed with 1% formic acid v/v ratio), methanol (HiPerSolbe CHROMANORM Methanol, VWR BDH Chemicals) and water (HiPerSolbe CHROMANORM Water, VWR BDH Chemicals) as mobile phase.

SMILES | YI (Yellowness Index) [1] | Abs @ 400 nm, RO (Absorption of ring-open isomer at 400 nm) [1] | RC [O] (oxidation potential of ring-closed isomer) [2] | RO [O] (oxidation potential of ring-open isomer) [2] | Photostability (in words) [3] | Ketone (%) ([3]; 10 wt % in Rhodiasolv IRIS) | Minus-2HF (%) ([3]; 10 wt % in Rhodiasolv IRIS) | Minus-HF (%) ([3]; 10 wt % in Rhodiasolv IRIS) | Sulfone (%) ([3]; 10 wt % in Rhodiasolv IRIS) | Chromophore Remaining (%) ([3]; 10 wt % in Rhodiasolv IRIS) | Ratio of chromophore remaining relative to S340 ([3]; 10 wt %) | further results
COc1ccc2oc(-c3ccc(C(C)(C)C)cc3)c(C3=C(c4cc(-c5ccc(C(C)(C)C)s5)sc4-c4ccc(C(C)(C)C)s4)C(F)(F)C(F)(F)C3(F)F)c2c1 [Chromophore S344, 2-(4-(tert-butyl)phenyl)-3-(2-(5,5″-di-tert-butyl-[2,2′:5′,2″-terthiophen]-3′-yl)-3,3,4,4,5,5-hexafluorocyclopent-1-en-1-yl)-5-methoxybenzofuran] | 2.91 | 0.1 | 1.05 | 1.36 | more rapid degradation compared to S340 |  |  |  |  |  |  | Ketone (%) ([3]; 3 wt % in Rhodiasolv IRIS): 0.0%; Minus-2HF (%) ([3]; 3 wt % in Rhodiasolv IRIS): 8.0%; Minus-HF (%) ([3]; 3 wt % in Rhodiasolv IRIS): 25.7%; Sulfone (%) ([3]; 3 wt % in Rhodiasolv IRIS): 0.0%; Chromophore Remaining (%) ([3]; 3 wt % in Rhodiasolv IRIS): 65.1%; Ratio of chromophore remaining relative to S340 ([3]; 3 wt %): 0.71
COCCOc1cc2oc(-c3ccc(C(C)(C)C)cc3)c(C3=C(c4cc(-c5ccc(C(C)(C)C)s5)sc4-c4ccc(C(C)(C)C)s4)C(F)(F)C(F)(F)C3(F)F)c2cc1OCCOC [Chromophore S364, 2-(4-(tert-butyl)phenyl)-3-(2-(5,5″-di-tert-butyl-[2,2′:5′,2″-terthiophen]-3′-yl)-3,3,4,4,5,5-hexafluorocyclopent-1-en-1-yl)-5,6-bis(2-methoxyethoxy)benzofuran] | 4.21 | 0.105 | 0.93 | 1.32 | decreased stability | 0.6% | 2.7% | 14.9% | 0.0% | 80.4% | 0.88 | 
CC(=O)Oc1cc2oc(-c3ccc(C(C)(C)C)cc3)c(C3=C(c4cc(-c5ccc(C(C)(C)C)s5)sc4-c4ccc(C(C)(C)C)s4)C(F)(F)C(F)(F)C3(F)F)c2cc1OC(C)=O [Chromophore S367, 2-(4-(tert-butyl)phenyl)-3-(2-(5,5″-di-tert-butyl-[2,2′:5′,2″-terthiophen]-3′-yl)-3,3,4,4,5,5-hexafluorocyclopent-1-en-1-yl)benzofuran-5,6-diyl diacetate] | 5.47 | 0.102 | 1.12 | 1.38 | more rapid degradation compared to S340 | 1.1% | 0.0% | 56.0% | 0.0% | 40.8% | 0.45 | 
CCOC(=O)CCCOc1cc2oc(-c3ccc(C(C)(C)C)cc3)c(C3=C(c4cc(-c5ccc(C(C)(C)C)s5)sc4-c4ccc(C(C)(C)C)s4)C(F)(F)C(F)(F)C3(F)F)c2cc1OCCCC(=O)OCC [Chromophore S374, diethyl 4,4′-((2-(4-(tert-butyl)phenyl)-3-(2-(5,5″-di-tert-butyl-[2,2′:5′,2″-terthiophen]-3′-yl)-3,3,4,4,5,5-hexafluorocyclopent-1-en-1-yl)benzofuran-5,6-diyl)bis(oxy))dibutanoate] | 6.76 | 0.144 | 0.93 | 1.35 | decreased stability | 0.0% | 0.0% | 26.5% | 0.0% | 72.4% | 0.79 | 
COc1cc2oc(-c3ccc(C(C)(C)C)cc3)c(C3=C(c4cc(-c5cc(C(C)(C)C)cs5)sc4-c4cc(C(C)(C)C)cs4)C(F)(F)C(F)(F)C3(F)F)c2cc1OC [Chromophore S377, 2-(4-(tert-butyl)phenyl)-3-(2-(4,4″-di-tert-butyl-[2,2′:5′,2″-terthiophen]-3′-yl)-3,3,4,4,5,5-hexafluorocyclopent-1-en-1-yl)-5,6-dimethoxybenzofuran] | 4.89 | 0.101 | 0.97 | 1.42 | high photostability |  |  |  |  |  |  | Ketone (%) ([3]; 5 wt % in Rhodiasolv IRIS): 0.0%; Minus-2HF (%) ([3]; 5 wt % in Rhodiasolv IRIS): 0.0%; Minus-HF (%) ([3]; 5 wt % in Rhodiasolv IRIS): 0.0%; Sulfone (%) ([3]; 5 wt % in Rhodiasolv IRIS): 0.0%; Chromophore Remaining (%) ([3]; 5 wt % in Rhodiasolv IRIS): 100.0%; Ratio of chromophore remaining relative to S340 ([3]; 5 wt %): 1.10
